Reference: ChEMBL document CHEMBL2375345, “New antiprotozoal agents: their synthesis and biological evaluations” (Bioorg Med Chem Lett, 2013)
pIC50: −log10 of the molar value.

Columns and labels:
[1] = Selectivity index, ratio of CC50 for human MRC5 cells to IC50 for amastigote form of Leishmania infantum MHOM/MA(BE)/67; format: functional
[2] = Selectivity index, ratio of CC50 for human MRC5 cells to IC50 for trypomastigote form of Trypanosoma brucei rhodesiense STIB900; format: functional
[3] = Selectivity index, ratio of CC50 for human MRC5 cells to IC50 for trypomastigote form of Trypanosoma brucei brucei 427; format: functional
[4] = Selectivity index, ratio of CC50 for human MRC5 cells to IC50 for epimastigote form of Trypanosoma cruzi Tulahuen 2; format: functional
[5] = Lipophilicity, log P of the compound; format: physicochemical; conditions: octanol/water
[6] = Cytotoxicity against human MRC5 cells assessed as cell viability after 7 days by Alamar blue assay; format: cell-based
Leishmania infantum = test: Antiprotozoal activity against amastigote form of Leishmania infantum MHOM/MA(BE)/67 infected in mouse peritoneal macrophages assessed as reduction of intracellular parasite burden after 5 days by Giemsa staining method; format: functional, organism-based; conditions: MHOM/MA(BE)/67, 120 h
Trypanosoma cruzi = test: Antiprotozoal activity against epimastigote form of Trypanosoma cruzi Tulahuen 2 assessed as parasite growth inhibition measured at day 5; format: functional, organism-based; conditions: Tulahuen 2, 120 h
[7] = test system: Trypanosoma brucei brucei; test: Antiprotozoal activity against trypomastigote form of Trypanosoma brucei brucei 427 assessed as parasite growth inhibition; format: functional, organism-based
[8] = test system: Trypanosoma brucei rhodesiense; test: Antiprotozoal activity against trypomastigote form of Trypanosoma brucei rhodesiense STIB900 assessed as parasite growth inhibition after 72 hrs by Alamar blue assay; format: functional, organism-based; conditions: STIB900, 72 h

Row | logP [5] | pIC50 (Leishmania infantum) | pIC50 (Trypanosoma cruzi) | pIC50 [7] | pIC50 [8] | SMILES | Ratio CC50/IC50 [1] | Ratio CC50/IC50 [2] | Ratio CC50/IC50 [3] | Ratio CC50/IC50 [4] | CC50 at 168 h [6] [µM]
1 | 6.4 | 5.02 | 5.15 | 5.09 | 5.58 | O/N=C1\c2ccccc2-c2c1c(N1CCN(c3ccccn3)CC1)nc1ccc(Br)cc21 | 6.73 | 24.52 | 7.34 | 9.13 | 64
2 | – | 5.29 | 5.17 | 5.22 | 5.92 | CC(C)(C)OC(=O)NCC(=O)O/N=C1\c2ccccc2-c2c1c(N1CCN(c3ccccn3)CC1)nc1ccc(Br)cc21 | 12.6 | 53.33 | 10.58 | 9.38 | 64
3 | – | 5.22 | 5.62 | 5.09 | 5.29 | CCCC(=O)O/N=C1\c2ccccc2-c2c1c(-n1ccnc1)nc1ccc(Br)cc21 | 1.37 | 1.6 | 1 | 3.45 | 8.23
4 | 3.86 | 4.90 | 5.86 | 4.73 | 5.23 | CC1(O)c2ccccc2-c2c1c(-n1ccnc1)nc1ccc(Br)cc21 (stereo not given) | 0.9 | 1.93 | 0.61 | 8.23 | 11.5
5 | 4.09 | 4.68 | 6.03 | 4.54 | 5.15 | CC(=O)OC1(C)c2ccccc2-c2c1c(-n1ccnc1)nc1ccc(Br)cc21 (stereo not given) | 1.52 | 4.53 | 1.11 | 34.65 | 32.2
6 | 5.58 | 5.25 | 5.84 | 5.09 | 5.24 | CCCCC(=O)OC1(C)c2ccccc2-c2c1c(-n1ccnc1)nc1ccc(Br)cc21 (stereo not given) | 3.84 | 3.74 | 2.68 | 14.91 | 21.8
7 | – | 5.16 | 5.21 | 5.69 | 5.78 | CC(NC(=O)OC(C)(C)C)C(=O)O/N=C1\c2ccccc2-c2c1c(N1CCN(c3ccccn3)CC1)nc1ccc(Br)cc21 (stereo not given) | 3.86 | 16.3 | 13.19 | 4.33 | 26.9
8 | – | 5.25 | 5.10 | 5.67 | 5.87 | CC(C)(C)OC(=O)NC(C(=O)O/N=C1\c2ccccc2-c2c1c(N1CCN(c3ccccn3)CC1)nc1ccc(Br)cc21)C(C)(C)C (stereo not given) | 6.29 | 26.17 | 16.48 | 4.52 | 35.6
9 | – | 5.02 | 5.13 | 5.62 | 5.84 | CSCCC(NC(=O)OC(C)(C)C)C(=O)O/N=C1\c2ccccc2-c2c1c(N1CCN(c3ccccn3)CC1)nc1ccc(Br)cc21 (stereo not given) | 6.73 | 44.44 | 26.66 | 8.66 | 64
10 | 8.3 | 5.50 | 5.12 | 5.13 | 5.82 | CC(C)CC(NC(=O)OCC1c2ccccc2-c2ccccc21)C(=O)O/N=C1\c2ccccc2-c2c1c(N1CCN(c3ccccn3)CC1)nc1ccc(Br)cc21 (stereo not given) | 4.28 | 8.94 | 1.85 | 1.8 | 13.6
11 | – | 4.90 | 5.13 | 5.14 | 5.36 | CC(C)(C)OC(=O)N1CCCC1C(=O)O/N=C1\c2ccccc2-c2c1c(-n1ccnc1)nc1ccc(Br)cc21 (stereo not given) | 0.63 | 1.85 | 1.09 | 1.08 | 8
12 | 7.69 | 5.09 | 5.43 | 5.66 | 5.84 | CC(O)c1cc(F)ccc1Oc1nc2ccc(NS(=O)(=O)c3cccc(C(F)(F)F)c3)cc2cc1Cc1ccccc1 (stereo not given) | – | – | – | – | 8
13 | – | 5.67 | 5.70 | 5.70 | 5.91 | O=[N+]([O-])c1ccc2nc(Oc3ccc(F)cc3C(O)CN3CCCCC3)c(Cc3ccccc3)cc2c1 (stereo not given) | 1.29 | 8.8 | 4.31 | 2.2 | –
14 | – | 4.52 | 4.19 | 5.69 | 6.07 | COc1cccc(N2CCN(CC(O)COC3(C)c4ccccc4-c4c3c(N3CCN(C(c5ccccc5)c5ccccc5)CC3)nc3ccc(Br)cc43)CC2)c1 (stereo not given) | 2.04 | 71.44 | 30.26 | 0.96 | 61.4
15 | 5.23 | 4.56 | 5.08 | 5.07 | 5.26 | CC1(OCC2CO2)c2ccccc2-c2c1c(C(F)(F)F)nc1ccc(Br)cc21 (stereo not given) | 0.14 | 0.73 | 0.47 | 0.48 | 4
16 | – | 5.09 | 4.91 | 5.12 | 5.51 | CC(C)(C)OC(=O)N1CCCC(C(=O)O/N=C2\c3ccccc3-c3c2c(C(F)(F)F)nc2ccc(Br)cc32)C1 (stereo not given) | 0.72 | 1.91 | 0.77 | 0.47 | 5.84
17 | 3.68 | 5.22 | 5.67 | 5.69 | 5.93 | COc1nc2ccc(Br)cc2c2c1C(C)(OCC(O)Cn1ccnc1)c1ccccc1-2 (stereo not given) | 1.33 | 6.83 | 3.94 | 3.7 | 8
18 | 7.5 | 5.29 | 5.27 | 5.64 | 5.90 | COc1nc2ccc(Br)cc2c2c1C(C)(OCC(O)Cn1ccc(-c3cccc(C(F)(F)F)c3)n1)c1ccccc1-2 (stereo not given) | 4.74 | 19.29 | 10.43 | 4.5 | 24.1
19 | 4.91 | 4.19 | 5.13 | 5.08 | 5.28 | COc1nc2ccc(Br)cc2c2c1C(C)(OC(=O)N(C)C)c1ccccc1-2 (stereo not given) | 1 | 12.12 | 7.77 | 8.62 | 64
20 | 6.01 | 4.69 | 5.16 | 5.11 | 5.22 | O=C1c2ccccc2-c2c1c(N1CCN(c3ccccn3)CC1)nc1ccc(Br)cc21 | 0.21 | 0.72 | 0.56 | 0.63 | 4.33
21 | – | 4.29 | 5.16 | 5.67 | 6.36 | COc1nc2ccc(Br)cc2cc1C(c1ccccc1)n1cnc([N+](=O)[O-])c1 (stereo not given) | 1.25 | 145.45 | 29.62 | 9.19 | 64
22 | – | 5.10 | 5.22 | 5.62 | 5.68 | COc1cccc(-c2ccn(CC(O)c3cc(F)ccc3Oc3nc4ccc([N+](=O)[O-])cc4cc3Cc3ccccc3)n2)c1 (stereo not given) | – | 30.8 | – | – | 64
23 | – | 4.69 | 4.19 | 5.67 | 6.15 | COc1ccc(-c2ccn(CC(O)c3cc(F)ccc3Oc3nc4ccc([N+](=O)[O-])cc4cc3Cc3ccccc3)n2)cc1 (stereo not given) | 3.15 | 31.52 | 31.37 | 33.16 | –
24 | 7.86 | 5.17 | 4.83 | 5.70 | 6.28 | COc1cccc(NC(=S)Nc2ccc3nc(Oc4ccc(F)cc4C(C)O)c(Cc4ccccc4)cc3c2)c1 (stereo not given) | 8 | – | 26.66 | – | 64
25 | 7.91 | 4.69 | 5.71 | 5.69 | 5.69 | CC(c1cc(F)ccc1Oc1nc2ccc(-n3cc(-c4ccccc4)nn3)cc2cc1Cc1ccccc1)n1ccnc1 (stereo not given) | 3.15 | – | 30.18 | – | 64
26 | 6.72 | 5.09 | 5.21 | 5.69 | 5.68 | COc1cccc(NC(=O)Nc2ccc3nc(Oc4ccc(F)cc4C(C)O)c(Cc4ccccc4)cc3c2)c1 (stereo not given) | – | 30.18 | – | – | 64
27 | 7.86 | 5.28 | 5.36 | 5.75 | 6.28 | COc1ccccc1NC(=S)Nc1ccc2nc(Oc3ccc(F)cc3C(C)O)c(Cc3ccccc3)cc2c1 (stereo not given) | 5.22 | 32.31 | – | – | 16
